Source: paper PMC3994577 (BMC Infectious Diseases, 2014)
Like-named read-outs stand apart in the source and are kept apart here.

Tests used:
[1] = Early RBV plasma exposure (AUC0-4h) after a 600 mg first dose of RBV; type: in vivo, human (patients with chronic hepatitis C); conditions: for AUC(0-t): human, plasma, oral, 600 mg
Procedure: Patients were divided into two groups according to their HIV status. […] All patients gave their informed consent before they entered the study.
The plasma AUC was determined for each patient before the antiviral treatment or at the first day.
Results of AUC and normalized AUC were analyzed according to the two groups defined by the HIV status.
All quantitative variables were expressed as median and range. Comparisons of data were made using the non-parametric Mann–Whitney test. Statistical analysis was performed using the Statistica® software package (StatSoft Inc). […] A p value below 0.05 was considered as statistically significant.

[2] = cited from earlier work
[3] = single oral dose, co-administration of a high fat meal; cited from earlier work

Patients with AUC0-4h <1755 ([1]; HCV monoinfected patients (n = 63), threshold 1755 μg.h/L): 32%
patients with AUC0-4h above the threshold of 1755 μg.h/L ([1]; HIV-HCV coinfected patients): 39%
AUC(0-t) ([1]; HCV monoinfected patients (n = 63), single 600 mg RBV dose, median (range), read-out: AUC0-4h): 2030 ng·h/mL
AUC(0-t) ([1]; HCV monoinfected, HCV treatment naive patients, read-out: median AUC0-4h): 2430 ng·h/mL
AUC(0-t) ([1]; HCV monoinfected, non-responders, read-out: median AUC0-4h): 1870 ng·h/mL
AUC(0-t) ([1]; HCV monoinfected, relapsers, read-out: median AUC0-4h): 2020 ng·h/mL
AUC(0-t) ([1]; HIV-HCV coinfected patients (n = 23), single 600 mg RBV dose, median (range), read-out: AUC0-4h): 1470 ng·h/mL
AUC(0-t) ([1]; HIV-HCV coinfected patients with CD4 < 500/mm^3, median (range), read-out: AUC0-4h): 1270 ng·h/mL
AUC(0-t) ([1]; HIV-HCV coinfected patients with CD4 ≥ 500/mm^3, median (range), read-out: AUC0-4h): 1840 ng·h/mL
AUC(0-t) ([1]; RBV-AUC 0-4h (median), HCV monoinfected patients, abstract): 2030 ng·h/mL
AUC(0-t) ([1]; RBV-AUC 0-4h (median), HIV-HCV coinfected patients, abstract): 1470 ng·h/mL
AUC(0-t) ([1]; all three HIV-HCV coinfected patients with detectable HIV RNA, read-out: AUC0-4h): < 1760 ng·h/mL
Men with AUC0-4h <1755 ([1]; male HCV monoinfected patients): 43%
Men with AUC0-4h <1755 ([1]; male HIV-HCV coinfected patients): 65%
AUC(0-t) ([1]; male, male HCV monoinfected patients, single 600 mg dose, median (range), read-out: Men AUC0-4h): 1880 ng·h/mL
AUC(0-t) ([1]; male, male HIV-HCV coinfected patients, single 600 mg dose, median (range), read-out: Men AUC0-4h): 1410 ng·h/mL
Structure (SMILES): NC(=O)c1ncn([C@@H]2O[C@H](CO)[C@@H](O)[C@H]2O)n1 [RBV, ribavirin]
patients with AUC0-4h below the 1755 μg.h/L threshold ([2]; historical study, monoinfected HCV genotype 1 patients): 58%
threshold for RBV plasma AUC from 0 to 4 h post-dose discriminating SVR from non-response ([2]; single dose of 600 mg, HCV monoinfected patients): 1755 µg·h/L
AUCtf (from time zero to the time of the final quantifiable sample) [3]: increased
Cmax [3]: increased
